The text below walks through data of ChEMBL document CHEMBL1130798, “Structure based design: novel spirocyclic ethers as nonpeptidal P2-ligands for HIV protease inhibitors” (Bioorg Med Chem Lett, 1998).

Test [1] addresses Human immunodeficiency virus type 1 protease (Human immunodeficiency virus 1, UniProt Q72874). In words: Compound was evaluated for binding affinity against HIV protease.
Test [2] relates to MT4. As to the kind of experiment: Compound was evaluated for the inhibition spread of HIV-1 in MT-4 human T-lymphoid cells infected with IIIB isolate. The class given is functional. Conditions: read-out: ID50 (the source's name).

Usually Ki stands for the dissociation constant of the complex between target and ligand, obtained from inhibition or displacement. Low values mean a stronger hold on the target, high ones a looser hold on the target. In the case of `CCC[C@]1(O)CCO[C@H](C(=O)N[C@@H](Cc2ccccc2)[C@H](O)CN(CC(C)C)S(=O)(=O)c2ccc(OC)cc2)C1`, the Ki in test [1] was more than 1 µM.

In the case of `COc1ccc(S(=O)(=O)N(CC(C)C)C[C@@H](O)[C@H](Cc2ccccc2)NC(=O)[C@@H]2C[C@]3(CCCO3)CCO2)cc1`, in test [2], the IC50 amounted to 4.5 µM. In test [1], this molecule registered an inhibitory constant (Ki) of 0.15 µM.

For the molecule `COc1ccc(S(=O)(=O)N(CC(C)C)C[C@@H](O)[C@H](Cc2ccccc2)NC(=O)[C@@H]2C[C@@]3(CCCO3)CCO2)cc1`, in test [2], the IC50 was found to be 2.4 µM. In test [1], this molecule registered an inhibitory constant (Ki) of 0.02 µM.

`COc1ccc(S(=O)(=O)N(CC(C)C)C[C@@H](O)[C@H](Cc2ccccc2)NC(=O)[C@H]2C[C@]3(CCCO3)CCO2)cc1` displayed an inhibition constant Ki in test [1] of more than 2 µM.

As for `COc1ccc(S(=O)(=O)N(CC(C)C)C[C@@H](O)[C@H](Cc2ccccc2)NC(=O)[C@H]2C[C@@]3(CCCO3)CCO2)cc1`, the IC50 in test [2] was 9.1 µM. The molecule further gave a Ki in test [1] of 0.4 µM.

For the molecule `CCC[C@]1(O)CCO[C@@H](C(=O)N[C@@H](Cc2ccccc2)[C@H](O)CN(CC(C)C)S(=O)(=O)c2ccc(OC)cc2)C1`, the IC50 in test [2] was determined as 3.4 µM. Besides, the affinity in test [1], expressed as Ki, was 0.15 µM.

`COc1ccc(S(=O)(=O)N(CC(C)C)C[C@@H](O)[C@H](Cc2ccccc2)NC(=O)C2CC3(CCCC3)CCO2)cc1` (stereo not given in full): the affinity in test [1] corresponds to a Ki of 1.5 µM. This lies in the single-digit micromolar range.

In the case of `CCC[C@@]1(O)CCO[C@H](C(=O)N[C@@H](Cc2ccccc2)[C@H](O)CN(CC(C)C)S(=O)(=O)c2ccc(OC)cc2)C1`, in test [2], the IC50 was more than 10 µM. The same molecule displayed a Ki in test [1] of 0.48 µM.

In test [1], `CCC[C@@]1(O)CCO[C@@H](C(=O)N[C@@H](Cc2ccccc2)[C@H](O)CN(CC(C)C)S(=O)(=O)c2ccc(OC)cc2)C1` had a Ki of more than 1 µM.

Take `CC(C)(C)NC(=O)C1CC2CCCCC2CN1C[C@@H](O)[C@H](Cc1ccccc1)NC(=O)[C@H](CC(N)=O)NC(=O)c1ccc2ccccc2n1` (single isomer, unassigned): in test [2], the IC50 was found to be 18 µM.
